Data published in the supplement of paper PMC10307832.

Assays:
Assay in all cases: relative viability (nuclei count vs DMSO), 5 days (fraction); higher = more cells survive
[1] = compound: N=C1NC(=O)/C(=C/c2ccc(O)cc2)S1 [Mirin] + CC1(C)CCC(c2ccc(Cl)cc2)=C(CN2CCN(c3ccc(C(=O)NS(=O)(=O)c4ccc(N[C@H](CCN5CCOCC5)CSc5ccccc5)c(S(=O)(=O)C(F)(F)F)c4)cc3)CC2)C1 [Navitoclax] (partner 0.5 µM)
Method in brief: (§1)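 Each reported value is a median over duplicate plates. It expresses relative viability: treated-well nuclei count divided by vehicle-well nuclei count. Lung cancer cell lines in 1536-well plates were dosed by pin tool a day after seeding, alone with one drug or with a fixed anchor-drug dose plus five library-drug doses (not always all listed) in √10 steps, and nuclei were counted after 5 days.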

[2] = compound: CCC1=CN=CN=C1N2CCN(CC2)CC3=NC4=C(N3)C=C(C=C4)C(F)(F)F + CC(=O)Nc1cccc(-n2c(=O)n(C3CC3)c(=O)c3c(Nc4ccc(I)cc4F)n(C)c(=O)c(C)c32)c1 [Trametinib] (partner 0.02 µM)
Method in brief: as §1

[3] = compound: N=C1NC(=O)/C(=C/c2ccc(O)cc2)S1 [Mirin] + N=C(N)NC(=N)NCCc1ccccc1 [Phenformin] (partner 250 µM)
Method in brief: as §1

[4] = compound: N=C1NC(=O)/C(=C/c2ccc(O)cc2)S1 [Mirin] + O=C(c1cc(Cc2n[nH]c(=O)c3ccccc23)ccc1F)N1CCN(C(=O)C2CC2)CC1 [Olaparib] (partner 8 µM)
Method in brief: as §1

Cell Line | relative viability ([1]; first compound 0.25 µM) | relative viability ([1]; first compound 0.7906 µM) | relative viability ([1]; first compound 2.5 µM) | relative viability ([1]; first compound 7.906 µM) | relative viability ([1]; first compound 25 µM) | relative viability ([2]; first compound 0.04 µM) | relative viability ([2]; first compound 0.1265 µM) | relative viability ([2]; first compound 0.4 µM) | relative viability ([2]; first compound 1.265 µM) | relative viability ([2]; first compound 4 µM) | relative viability ([3]; first compound 0.25 µM) | relative viability ([3]; first compound 0.7906 µM) | relative viability ([3]; first compound 2.5 µM) | relative viability ([3]; first compound 7.906 µM) | relative viability ([3]; first compound 25 µM) | relative viability ([4]; first compound 0.25 µM) | relative viability ([4]; first compound 0.7906 µM) | relative viability ([4]; first compound 2.5 µM) | relative viability ([4]; first compound 7.906 µM) | relative viability ([4]; first compound 25 µM)
NCI-H1650 | 1.05 | 1.53 | 1.21 | 1.21 | 1.06 | 0.499 | 0.707 | 0.573 | 0.499 | 0.672 | 0.39 | 0.456 | 0.435 | 0.423 | 0.295 | 0.789 | 0.929 | 0.817 | 0.755 | 0.732
NCI-H1651 | 1.01 | 0.97 | 1.01 | 0.826 | 0.836 | 0.884 | 0.855 | 0.846 | 0.791 | 0.797 | 0.332 | 0.34 | 0.324 | 0.336 | 0.319 | 0.182 | 0.208 | 0.182 | 0.167 | 0.199
NCI-H1666 | 0.921 | 0.941 | 1.03 | 0.719 | 0.59 | 0.892 | 0.825 | 0.877 | 0.879 | 0.792 | 0.568 | 0.62 | 0.598 | 0.539 | 0.49 | 0.763 | 0.797 | 0.737 | 0.71 | 0.728
NCI-H1734 | 0.838 | 0.746 | 0.793 | 0.742 | 0.771 | 0.581 | 0.668 | 0.604 | 0.65 | 0.709 | 0.395 | 0.324 | 0.35 | 0.394 | 0.352 | 0.538 | 0.582 | 0.662 | 0.556 | 0.461
NCI-H1755 | 1.03 | 1.11 | 1.03 | 1.09 | 1.14 | 0.828 | 0.769 | 0.759 | 0.68 | 0.799 | 0.617 | 0.595 | 0.683 | 0.63 | 0.678 | 0.851 | 0.914 | 0.866 | 0.833 | 0.93
NCI-H1792 | 0.611 | 0.529 | 0.68 | 0.583 | 0.695 | 0.585 | 0.389 | 0.403 | – | 0.522 | 0.351 | 0.369 | 0.306 | 0.245 | 0.264 | 0.533 | 0.392 | 0.484 | 0.383 | 0.495
NCI-H1793 | 0.55 | 0.36 | 0.395 | 0.656 | 0.371 | 0.459 | 0.4 | 0.397 | 0.362 | 0.349 | 0.447 | – | 0.362 | 0.287 | 0.374 | 0.649 | – | 0.958 | 0.873 | 0.703
NCI-H1915 | 0.775 | – | 0.76 | 0.743 | 0.866 | 0.286 | 0.337 | 0.293 | 0.248 | 0.287 | 0.353 | – | 0.364 | 0.356 | 0.386 | 0.283 | 0.221 | 0.272 | 0.223 | 0.182
NCI-H1944 | 1.03 | – | 1.07 | 1.08 | 0.861 | 0.519 | 0.406 | 0.4 | 0.324 | 0.352 | 0.206 | 0.227 | 0.186 | 0.169 | 0.167 | 0.377 | 0.421 | 0.391 | 0.328 | 0.296
NCI-H1975 | 1.05 | 1.07 | 1.11 | 1.14 | 0.994 | 0.36 | 0.342 | 0.319 | 0.309 | 0.422 | 0.448 | 0.375 | 0.452 | 0.452 | 0.425 | 0.892 | 0.83 | 0.819 | 0.855 | 0.715
NCI-H1993 | 1.03 | 1.02 | 0.913 | 0.932 | 0.749 | 0.493 | 0.658 | 0.552 | 0.549 | 0.644 | 0.459 | – | 0.517 | 0.586 | 0.623 | 1.07 | 1.07 | 1.12 | 0.932 | 0.962
NCI-H2009 | 1.17 | 1.3 | 1.18 | 1.11 | 1.2 | 0.346 | 0.299 | 0.281 | 0.182 | 0.246 | 0.485 | 0.573 | 0.522 | 0.411 | 0.526 | 0.727 | 0.737 | 0.684 | 0.524 | 0.675
NCI-H2023 | 0.991 | 0.963 | 1.01 | 0.995 | 0.972 | 0.533 | 0.53 | 0.527 | 0.513 | 0.453 | 0.419 | 0.461 | 0.442 | 0.426 | 0.418 | 0.496 | 0.506 | 0.454 | 0.459 | 0.416
NCI-H2085 | 0.978 | 1.17 | 1.25 | 1.12 | 1.09 | 0.456 | 0.369 | 0.401 | 0.43 | 0.491 | 0.804 | 0.756 | 0.749 | 0.655 | 0.654 | 0.773 | 0.752 | 0.773 | 0.949 | 0.808
